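The compound was tested at five concentrations on cells cultured in 96-well plates, with a 48-hour exposure period. At the GI50, growth is halved. TGI denotes the concentration required for complete inhibition of growth.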
Legend:
Assay in all cases: NCI anticancer screen, dose series, 48 h
NCI/ADR-RES ovarian = tested on: NCI/ADR-RES ovarian
CAKI-1 renal = tested on: CAKI-1 renal
NCI-H460 lung = tested on: NCI-H460 lung
OVCAR-5 ovarian = tested on: OVCAR-5 ovarian
HT29 colon = tested on: HT29 colon
KM12 colon = tested on: KM12 colon
NCI-H522 lung = tested on: NCI-H522 lung
PC-3 prostate = tested on: PC-3 prostate
NCI-H23 lung = tested on: NCI-H23 lung
SW-620 colon = tested on: SW-620 colon
SK-MEL-5 melanoma = tested on: SK-MEL-5 melanoma
DU-145 prostate = tested on: DU-145 prostate
OVCAR-4 ovarian = tested on: OVCAR-4 ovarian
NCI-H226 lung = tested on: NCI-H226 lung
SN12C renal = tested on: SN12C renal
HOP-92 NSCLC = tested on: HOP-92 NSCLC
LOX IMVI melanoma = tested on: LOX IMVI melanoma
ACHN renal = tested on: ACHN renal
OVCAR-8 ovarian = tested on: OVCAR-8 ovarian
HOP-62 NSCLC = tested on: HOP-62 NSCLC
SF-268 CNS = tested on: SF-268 CNS
SK-OV-3 ovarian = tested on: SK-OV-3 ovarian
MCF7 breast = tested on: MCF7 breast
RXF 393 renal = tested on: RXF 393 renal
SK-MEL-28 melanoma = tested on: SK-MEL-28 melanoma
A549 NSCLC = tested on: A549 NSCLC
BT-549 breast = tested on: BT-549 breast
HS 578T breast = tested on: HS 578T breast
IGROV1 ovarian = tested on: IGROV1 ovarian
M14 melanoma = tested on: M14 melanoma
SF-539 CNS = tested on: SF-539 CNS
UACC-257 melanoma = tested on: UACC-257 melanoma
UO-31 renal = tested on: UO-31 renal
UACC-62 melanoma = tested on: UACC-62 melanoma
MDA-MB-435 = tested on: MDA-MB-435
SNB-19 CNS = tested on: SNB-19 CNS
MDA-MB-231 breast = tested on: MDA-MB-231 breast
SR leukemia = tested on: SR leukemia
MOLT-4 leukemia = tested on: MOLT-4 leukemia
T-47D breast = tested on: T-47D breast
SNB-75 CNS = tested on: SNB-75 CNS
HCT-15 colon = tested on: HCT-15 colon
OVCAR-3 ovarian = tested on: OVCAR-3 ovarian
COLO 205 colon = tested on: COLO 205 colon
CCRF-CEM leukemia = tested on: CCRF-CEM leukemia
A498 renal = tested on: A498 renal
EKVX NSCLC = tested on: EKVX NSCLC
HCT-116 colon = tested on: HCT-116 colon
K-562 leukemia = tested on: K-562 leukemia
SK-MEL-2 melanoma = tested on: SK-MEL-2 melanoma
HL-60(TB) leukemia = tested on: HL-60(TB) leukemia
U251 CNS = tested on: U251 CNS
786-0 renal = tested on: 786-0 renal
MALME-3M melanoma = tested on: MALME-3M melanoma
HCC-2998 colon = tested on: HCC-2998 colon
SF-295 CNS = tested on: SF-295 CNS
TK-10 renal = tested on: TK-10 renal
RPMI-8226 leukemia = tested on: RPMI-8226 leukemia

## O=C(NNc1nc2cc(F)cc(F)c2n2cccc12)c1ncccn1
NCI/ADR-RES ovarian
  GI50: 218 nM
  TGI: 10300 nM
CAKI-1 renal
  GI50: 336 nM
  TGI: 9500 nM
NCI-H460 lung
  GI50: 212 nM
  TGI: 3900 nM
OVCAR-5 ovarian
  GI50: 1180 nM
  TGI: > 30000 nM
HT29 colon
  GI50: 940 nM
  TGI: > 30000 nM
KM12 colon
  GI50: 537 nM
  TGI: > 30000 nM
NCI-H522 lung
  GI50: 1030 nM
  TGI: > 17000 nM
PC-3 prostate
  GI50: 786 nM
  TGI: > 26800 nM
NCI-H23 lung
  GI50: 1350 nM
  TGI: > 30000 nM
SW-620 colon
  GI50: 1010 nM
  TGI: > 30000 nM
SK-MEL-5 melanoma
  GI50: 584 nM
  TGI: 2860 nM
DU-145 prostate
  GI50: 751 nM
  TGI: > 30000 nM
OVCAR-4 ovarian
  GI50: 801 nM
  TGI: > 23700 nM
NCI-H226 lung
  GI50: 585 nM
  TGI: 6670 nM
SN12C renal
  GI50: 1200 nM
  TGI: > 30000 nM
HOP-92 NSCLC
  GI50: 1240 nM
  TGI: 20700 nM
LOX IMVI melanoma
  GI50: 487 nM
  TGI: 15800 nM
ACHN renal
  GI50: 164 nM
  TGI: 3830 nM
OVCAR-8 ovarian
  GI50: 509 nM
  TGI: > 30000 nM
HOP-62 NSCLC
  GI50: 226 nM
  TGI: 22400 nM
SF-268 CNS
  GI50: 521 nM
  TGI: > 30000 nM
SK-OV-3 ovarian
  GI50: 443 nM
  TGI: 9810 nM
MCF7 breast
  GI50: 862 nM
  TGI: 10700 nM
RXF 393 renal
  GI50: 1310 nM
  TGI: 5640 nM
SK-MEL-28 melanoma
  GI50: 682 nM
  TGI: > 30000 nM
A549 NSCLC
  GI50: 437 nM
  TGI: 8670 nM
BT-549 breast
  GI50: 1040 nM
  TGI: 17000 nM
HS 578T breast
  GI50: 3180 nM
  TGI: > 28600 nM
IGROV1 ovarian
  GI50: 420 nM
  TGI: 22400 nM
M14 melanoma
  GI50: 390 nM
  TGI: 5620 nM
SF-539 CNS
  GI50: 728 nM
  TGI: > 16600 nM
UACC-257 melanoma
  GI50: 1180 nM
  TGI: 15700 nM
UO-31 renal
  GI50: 116 nM
  TGI: 3670 nM
UACC-62 melanoma
  GI50: 377 nM
  TGI: > 9210 nM
MDA-MB-435
  GI50: 1240 nM
  TGI: > 30000 nM
SNB-19 CNS
  GI50: 688 nM
  TGI: > 30000 nM
MDA-MB-231 breast
  GI50: 1220 nM
  TGI: > 25300 nM
SR leukemia
  GI50: 221 nM
  TGI: > 30000 nM
MOLT-4 leukemia
  GI50: 613 nM
  TGI: > 30000 nM
T-47D breast
  GI50: 1060 nM
  TGI: 22700 nM
SNB-75 CNS
  GI50: 793 nM
  TGI: > 27600 nM
HCT-15 colon
  GI50: 121 nM
  TGI: 6210 nM
OVCAR-3 ovarian
  GI50: 730 nM
  TGI: > 30000 nM
COLO 205 colon
  GI50: 773 nM
  TGI: > 30000 nM
CCRF-CEM leukemia
  GI50: 327 nM
  TGI: > 30000 nM
A498 renal
  GI50: 1200 nM
  TGI: 5850 nM
EKVX NSCLC
  GI50: 409 nM
  TGI: 8710 nM
HCT-116 colon
  GI50: 341 nM
  TGI: > 21100 nM
K-562 leukemia
  GI50: 1000 nM
  TGI: > 30000 nM
SK-MEL-2 melanoma
  GI50: 2950 nM
  TGI: 30000 nM
HL-60(TB) leukemia
  GI50: 803 nM
  TGI: 5070 nM
U251 CNS
  GI50: 282 nM
  TGI: > 19100 nM
786-0 renal
  GI50: 901 nM
  TGI: > 14800 nM
MALME-3M melanoma
  GI50: 1050 nM
  TGI: 19600 nM
HCC-2998 colon
  GI50: 863 nM
  TGI: > 30000 nM
SF-295 CNS
  GI50: 176 nM
  TGI: 4990 nM
TK-10 renal
  GI50: 427 nM
  TGI: 8020 nM
RPMI-8226 leukemia
  GI50: 1180 nM
  TGI: > 30000 nM

From PubChem BioAssay (NCI)
